Values joined by “and” are separate entries in the source; they are usually repeats but may differ in a detail not shown here. Equal values may be shown once. In the oligonucleotide strings, read from the 5' end, every base follows the letter of its sugar. An asterisk marks phosphorothioate; unmarked linkages are phosphodiester. Other units and linkages are bracketed, terminal groups are in braces. A string of capitals states the bases alone. {D01} = GalNAc ligand D01, attached to sense strand by a phosphodiester bond; m = 2'-O-methyl; f = 2'-fluoro
Experiments:
AGT mRNA = experiment: Mouse hAGT HDI model (liver AGT mRNA); type: in vivo; conditions: 5 mg/kg single s.c. dose, liver on Day 4; for AGT mRNA expression of mouse liver after administration/before administration, Average: group average (4 mice); for AGT mRNA expression of mouse liver after administration/before administration: individual animal, 5 mg/kg
Method: The targeting of a target gene in a sample to be tested and the inhibitory effect on the target gene were evaluated by a mouse model injected with pcDNA-CMV-AGT plasmids via tail vein at high pressure.
pcDNA-CMV-AGT plasmids, BALB/c female mice, DPBS (Dulbecco's phosphate buffer solution), and a conjugate of the present invention.
6 to 8-week-old BALB/c female mice were purchased, and the mice were adapted to quarantine for one week after arriving at an animal room.
On Day 0, the mice were divided into groups at random according to weight data, with 4 mice in each group, all the mice were dosed subcutaneously after grouping, with a single dose at 10 mL/kg. The mice in group 1 were dosed with DPBS; the mice in group 2 were dosed with AD-85481 at the dose of 5 mg/kg; the mice in group 3 were dosed with the conjugate 3 of the present invention at the dose of 5 mg/kg; the group 4 was dosed with the conjugate 2 of the present invention at the dose of 5 mg/kg.
On Day 3 after administration, all the mice were injected with the pcDNA-CMV-AGT plasmids at a volume of 8% of their weight via the tail vein within 5 s (injection volume (mL)=mouse weight (g)×8%). The mass of the plasmids injected into each mouse was 10 μg.
On Day 4 after administration, all groups of mice were euthanized by CO2 inhalation, and 2 liver samples were collected from each mouse. The liver samples were treated with RNAlater at 4° C. overnight, then RNAlater was removed, and subsequently the samples without RNAlater were stored at −80° C. for detecting the expression level of AGT genes.
4. In the table, the data represent AGT mRNA expression of mouse liver after administration/AGT mRNA expression of mouse liver before administration, […]

hTLR7 = target: T1, hTLR7 (Homo sapiens, UniProt Q9NYK1); experiment: Agonistic activity on hTLR7 cells (HEK BLUE, QUANTI-Blue OD650); type: cell-based; conditions: 24 h, transfection with RNAiMAX, maximum concentration 200 nM
T1 construct: host or cells: HEK BLUE hTLR7 (HEK293-derived SEAP reporter line)
T1 sequence (Q9NYK1 27-1049): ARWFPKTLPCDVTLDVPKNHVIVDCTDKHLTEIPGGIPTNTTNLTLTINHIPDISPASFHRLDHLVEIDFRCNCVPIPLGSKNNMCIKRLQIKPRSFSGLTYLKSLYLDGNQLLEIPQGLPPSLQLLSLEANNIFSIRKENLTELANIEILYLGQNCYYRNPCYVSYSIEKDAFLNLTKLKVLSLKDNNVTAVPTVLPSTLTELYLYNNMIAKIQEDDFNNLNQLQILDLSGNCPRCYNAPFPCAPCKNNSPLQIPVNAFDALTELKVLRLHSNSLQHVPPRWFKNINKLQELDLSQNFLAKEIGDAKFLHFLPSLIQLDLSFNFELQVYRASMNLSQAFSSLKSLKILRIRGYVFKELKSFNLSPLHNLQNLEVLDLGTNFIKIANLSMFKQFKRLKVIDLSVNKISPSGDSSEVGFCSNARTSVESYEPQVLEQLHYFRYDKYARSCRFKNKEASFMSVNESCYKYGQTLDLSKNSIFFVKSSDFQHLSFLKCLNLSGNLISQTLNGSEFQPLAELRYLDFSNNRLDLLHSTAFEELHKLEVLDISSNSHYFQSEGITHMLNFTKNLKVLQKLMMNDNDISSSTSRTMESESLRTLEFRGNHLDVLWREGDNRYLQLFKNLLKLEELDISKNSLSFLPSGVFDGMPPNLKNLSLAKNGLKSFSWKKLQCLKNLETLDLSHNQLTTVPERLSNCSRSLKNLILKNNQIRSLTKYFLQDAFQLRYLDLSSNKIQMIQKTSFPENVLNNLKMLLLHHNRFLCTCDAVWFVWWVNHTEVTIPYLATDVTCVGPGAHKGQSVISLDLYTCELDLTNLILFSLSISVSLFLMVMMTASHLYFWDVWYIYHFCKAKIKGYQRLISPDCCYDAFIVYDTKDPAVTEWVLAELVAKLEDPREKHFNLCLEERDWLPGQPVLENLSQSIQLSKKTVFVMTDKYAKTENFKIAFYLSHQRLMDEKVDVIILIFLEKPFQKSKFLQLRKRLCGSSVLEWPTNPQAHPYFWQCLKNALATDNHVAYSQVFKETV
Method: (§1) 1) The conjugate of the present invention was diluted to a concentration that was 20 times a final concentration, the diluted conjugate was mixed with RNAiMAX-OPTI MEM (RNAiMAX:OPTI MEM=3:47) at a ratio of 1:1 and incubated for 15 min at room temperature.
(§2) 2) 10 μL of incubated conjugate of the present invention was added into a corresponding cell plate, with 10 concentrations in total, a maximum concentration being 200 nM, and double duplicated wells for each concentration.
10 μL of 0.5 μM BLOCK-iT™ Alexa Fluor® Red Fluorescent Control was added into 2 transfection positive control wells.
4) 90 μL of cells were seeded into a 96-well plate with the conjugate at the density of 50,000 cells/well. […]
7) Compound activity detection: 20 μL of cell supernatant was taken from each well and added into an experimental plate containing 180 μL of QUANTI-Blue™ reagent and then incubated for 1 h at 37° C., followed by detecting an absorbance values at 650 nm (OD650) using the multifunctional microplate reader Flexstation III.
Compound activity: the OD650 values were analyzed using GraphPad Prism software, and a dose effect curve of the compound was fit, and the EC50 value of the compound was calculated. […] The cell activity % value was analyzed using GraphPadPrism software, the dose effect curve of the compound was fit, and the CC50 value of the compound on cell was calculated.

HEK BLUE hTLR3 = experiment: Cell activity detection (CellTiter-Glo) in hTLR3 cells; type: cell-based, human; conditions: 24 h, maximum concentration 200 nM, read-out: CC50
Method: as §1, §2
(§3) 4) 90 μL of cells were seeded into a 96-well plate with the conjugate at the density of 50,000 cells/well.
(§4) 5) The conjugate of the present invention and the cells were co-incubated for 24 h in an incubator under the conditions of 37° C. and 5% CO2.
(§5) 8) Cell activity detection: the operation was carried out according to the method in the Celltiter-Glo specification, and a chemiluminescence signals (RLU) were detected using the multifunctional microplate reader Flexstation III.
(§6) Compound activity: the OD650 values were analyzed using GraphPad Prism software, and a dose effect curve of the compound was fit, and the EC50 value of the compound was calculated. Cell activity detection: the calculation formula of cell activity % was as follows. The cell activity % value was analyzed using GraphPadPrism software, the dose effect curve of the compound was fit, and the CC50 value of the compound on cell was calculated.

HEK BLUE hTLR7 = experiment: Cell activity detection (CellTiter-Glo) in hTLR7 cells; type: cell-based, human; conditions: 24 h, maximum concentration 200 nM, read-out: CC50
Method: as §1, §2, §3, §4, §5, §6

HEK BLUE hTLR8 = experiment: Cell activity detection (CellTiter-Glo) in hTLR8 cells; type: cell-based, human; conditions: 24 h, maximum concentration 200 nM, read-out: CC50
Method: as §1, §2, §3, §4, §5, §6

For “Conjugate 2: Double-stranded RNAi analog against AGT, D01 GalNAc ligand on sense strand; sense SEQ ID NO: 6, antisense SEQ ID NO: 2 containing Z (sense mA*mU*fCfCmAfCfAfAmUmGmAmGmAfGmUmAmCmA-{D01}; antisense CUCACAUGUACNCUCAUUGUGGAUGACGA; antisense: chemistry not given here; antisense strand modified, includes nucleotide analog Z, further chemistry not fully specified)”, the “AGT mRNA expression of mouse liver after administration/before administration, Average” value (AGT mRNA) was 3%, the “AGT mRNA expression of mouse liver after administration/before administration” value (AGT mRNA) was 2% (2×) and 3% and 4% and the EC50 (hTLR7) was greater than 200 nM. It also gave a CC50 (HEK BLUE hTLR3) greater than 200 nM, a CC50 (HEK BLUE hTLR7) greater than 200 nM and a CC50 (HEK BLUE hTLR8) greater than 200 nM.
With “Conjugate 3: Double-stranded RNAi analog against AGT, D01 GalNAc ligand on sense strand; sense SEQ ID NO: 7, antisense SEQ ID NO: 2 containing Z (sense mA*mU*fCfCmAfCfAfAmUmGmAfGmAmGmUmAmCmA-{D01}; antisense CUCACAUGUACNCUCAUUGUGGAUGACGA; antisense: chemistry not given here; antisense strand modified, includes nucleotide analog Z, further chemistry not fully specified)” the “AGT mRNA expression of mouse liver after administration/before administration, Average” value (AGT mRNA) was 3%, the “AGT mRNA expression of mouse liver after administration/before administration” value (AGT mRNA) was 3% (2×) and 2% (2×) and the EC50 (hTLR7) was greater than 200 nM. The CC50 (HEK BLUE hTLR3) was greater than 200 nM, the CC50 (HEK BLUE hTLR7) was greater than 200 nM and the CC50 (HEK BLUE hTLR8) was greater than 200 nM.
